Assay results as given in the NIST ThermoML archive (doi:10.1016/j.tca.2018.01.023).
± gives the expanded uncertainty stated by the source.

Legend:
[1] = Crystal; for molar entropy: 101.33 kPa, Small sample (50 mg) DSC
[2] = Molar enthalpy of transition or fusion; details: Crystal; DSC

[Ca+2].[O]=[Mo](=[O])([O-])[O-] [calcium molybdate(VI)]
[1]
Details	Normal melting temperature [°C]	molar entropy [J/K/mol]
298.15 K	–	122 ± 7.8
310 K	–	126.5 ± 8.1
315 K	–	128.4 ± 8.2
320 K	–	130.3 ± 8.3
325 K	–	132.1 ± 8.4
330 K	–	133.9 ± 8.5
335 K	–	135.7 ± 8.6
340 K	–	137.5 ± 8.8
345 K	–	139.3 ± 8.9
350 K	–	141 ± 9
355 K	–	142.8 ± 9.1
360 K	–	144.5 ± 9.2
365 K	–	146.2 ± 9.3
370 K	–	147.9 ± 9.4
375 K	–	149.6 ± 9.5
380 K	–	151.2 ± 9.6
385 K	–	152.9 ± 9.7
390 K	–	154.5 ± 9.8
395 K	–	156.1 ± 9.9
400 K	–	157.7 ± 10
410 K	–	160.9 ± 10
420 K	–	164 ± 10
430 K	–	167.1 ± 11
440 K	–	170.1 ± 11
450 K	–	173.1 ± 11
460 K	–	176 ± 11
470 K	–	178.8 ± 11
480 K	–	181.7 ± 12
490 K	–	184.5 ± 12
500 K	–	187.2 ± 12
510 K	–	189.9 ± 12
520 K	–	192.6 ± 12
530 K	–	195.2 ± 12
540 K	–	197.8 ± 13
550 K	–	200.3 ± 13
560 K	–	202.8 ± 13
570 K	–	205.3 ± 13
580 K	–	207.7 ± 13
590 K	–	210.1 ± 13
600 K	–	212.5 ± 14
620 K	–	217.2 ± 14
640 K	–	221.7 ± 14
660 K	–	226.1 ± 14
680 K	–	230.4 ± 15
700 K	–	234.6 ± 15
720 K	–	238.7 ± 15
740 K	–	242.8 ± 16
760 K	–	246.7 ± 16
766 K	–	247.8 ± 16
DTA	1477 ± 8	–

Details	Molar enthalpy of transition or fusion [kcal/mol]
[2]	24.4 ± 2.87
